The values below come from US10422775B2, “Methods for determining relative response factors for impurity analysis using liquid chromatography with absorbance and evaporative light scattering detection” (Waters Technologies Corporation, priority 2016, dated 2019).

Where “and” joins values, the source holds several entries; their conditions need not be identical. Identical values can stand only once.

Series [1] is described as follows: Quantitation of by-product 4-methylcyclohexylamine by MS (SIR m/z 114.1) in acidic degradation of glimepiride. The format is physicochemical. Conditions: for 4-MeCHA / 4-MeCHA (%): by-product formed from glimepiride, acidic degradation. Here is the method:
(§1) The separation of glimepiride and related compounds B and C was achieved on a 2.1 mm×50 mm, 1.8 μm, ACQUITY UPLC HSS T3 C18 column (Waters Corporation) under isocratic conditions. The mobile phase was 0.1% (v/v) formic acid in 60:40 water/acetonitrile at a flow rate of 0.8 mL/min. The column temperature was 30° C. with mobile phase pre-heating. Injection volume was 4 μL. The PDA settings included wavelength of 228 nm, sampling rate of 20 points per second. The ELSD was set to a gas pressure of 25 psi, the nebulizer in Cooling mode, drift tube temperature of 55° C. and the gain set to 100 with a data rate of 10 points per second. The make-up pump was used for post-column addition of solvent using the ISM at a flow rate of 0.3 mL/min with 0.1% (v/v) formic acid in methanol. The mass detector (ACQUITY QDa, Waters Corp, USA) utilized positive electrospray ionization (ESI+), with a cone voltage set to 5 V. The capillary voltage was 1.4 kV and the sampling rate was 5 points per second. The mass range collected was 100-600 Da with additional single ion recording (SIR) channels were collected simultaneously for the following m/z=114.1 Da, 374.6 Da, 432.2 Da and 513.7 Da. The SIR channels were measured with a cone voltage of 5 V.
Additionally, standards of 4-Methylcylohexylamine for quantitation by mass spectrometry. Specifically, a solution of 4-methylcylcohexylamine was prepared at a concentration of 0.4 mg/mL in 25:75 water/methanol. Working standards were then prepared by diluting the stock with 25:75 water/methanol. Individual calibration standards were prepared in triplicate at 0.04% (w/w), 0.2%, 0.5%, 1%, 2% and 5%, of the sample concentration of 0.250 mg/mL. The labeled purity of 4-methylcylcohexylamine was 99.7%.
Mass detection was employed for confirmation of the degradation pathway and to reconcile mass balance differences. During the formation of both related compound B and related compound C, there is a loss of 4-methylcyclohexylamine (see FIG. 14).
Quantitation of 4-methylcyclohexylamine was achieved utilizing standards prepared from commercially available reagents. Working standards were prepared to cover the range from 0.04 to 10% (0.1 to 25 ug/mL). A single ion recording channel measuring the response for m/z=114.1 Da was used for quantitation. The working standard was present as a mixture of both the cis and trans geometric isomers. These isomers were partially separated chromatographically, therefore the sum of the isomers was used for the calibration curve. The calibration curve was quadratic and converted to a linear relationship using a log-log fit over the desired quantitation range with the parameters listed in the following table.
Using the calibration curve, 4-methylcylcohexylamine was quantified in the acidic and oxidative degradation reactions over the period of 5 days.

Series [2] can be described thus: Example 2: forced degradation of glimepiride drug substance under basic hydrolysis conditions, UV % impurities and mass balance. The class given is physicochemical. To be noted: for % Area (impurity peaks found in base hydrolysis): degradation peak in glimepiride drug substance. As for the experimental part: (§2) The chromatographic system was an ultra-high performance liquid chromatography system, specifically, an ACQUITY UPLC H-Class system with a pump (ACQUITY Quaternary Solvent Manager (QSM)), an injector (ACQUITY Flow Through Needle (FTN) Autosampler) and a column manager (ACQUITY Column Manager). The autosampler was configured with a 50 μL extension loop. The seal wash was 90:10 water/methanol, purge solvent was methanol and the needle wash solvent was 0.1% (v/v) formic acid in 30:70 water/acetonitrile. Detection was performed with a photodiode array detector (ACQUITY UPLC PDA), an evaporative light scattering detector (ACQUITY UPLC ELSD) and a mass detector (ACQUITY QDa) (Waters, Milford, Mass.). The eluent flow path was plumbed from the column to a triple static tee (1:10 split flow) housed within a secondary pump (ACQUITY Isocratic Solvent Manager (ISM)). The tubing from the column to the tee was 22.5″ of 0.004″ ID tubing. In the first split, a portion of the flow was diverted to the PDA with 16″ of 100 μm ID fused silica tubing and then, in series, to the ELS detector with 12″ of 0.004″ ID PEEK tubing. Flow from the isocratic solvent manager was introduced into the second splitter, and the final portion of flow was diverted to the mass spectrometer via the detector probe (250 mm). The chromatography data system was Empower 3 FR3 (Waters, Milford, Mass.). The forced degradation was performed using a water bath (Isotemp) purchased from Fisher Scientific.
as §1
(§3) Over a period of 7 days, the drug substance was exposed to acidic, basic and oxidative conditions with goals of achieving approximately 10% degradation as quantified by UV. The samples were tested at 2 day intervals and analyzed by UV-ELS and MS.
Under basic hydrolysis conditions, the drug substance degraded rapidly, over a period of 1 day with >10% of degradation. […] In contrast to the previously described analyses, many smaller impurity peaks were observed.
(§4) Mass balance calculations were performed using the experimentally determined RRFs for acidic, oxidative and basic degradation conditions. […] Both the % impurity and recovery were impacted similarly, however, the implications for % impurity are greater, in that impurity reporting, identification and qualification thresholds can be impacted by as little as 0.05%.

The nature of series [3]: Example 1: forced degradation (acid hydrolysis) of glimepiride with mass balance by UPLC-PDA using RRF. The class given is physicochemical. Conditions: acid hydrolysis 40° C. Set-up: Amount: unit not given beside the values. Here is the method: The controls and the samples that underwent acid hydrolysis were subjected to the following conditions.
Samples were analyzed using an ultra-high performance liquid chromatography system, specifically the ACUITY UPLC H-Class system from Waters Technologies Corporation. The system included photodiode array (PDA) and ELSD detectors, a quadrapole mass detector, specifically the Qda detector from Waters Technologies Corporation, and solvent and column managers. The PDA detector was used as a detector for UV-Vis absorbance. An ultra-high performance liquid chromatography column with 1.7 μm particle size and 2.1×50 mm column dimensions, specifically the ACUITY UPLC BEH C18 column from Waters Technologies Corporation, was used. The isocratic solvent manager was used with a flow rate of 0.3 mL/min and with 0.1% formic acid in methanol as a solvent. The following settings were used for the PDA and ELSD detectors.
Isocratic and gradients methods were developed for separation of impurities; however, the isocratic method was preferred as changing the solvent composition can affect the response and the size of droplets in ELSD. Mobile phase A was 0.1% (v/v) formic acid in water. Mobile phase B was 0.1% (v/v) formic acid in acetonitrile. The column temperature was 30° C. The injection volume was 2 μL. The flow rate was 0.8 mL/min. The isocratic tests included 60% mobile phase A and 40% mobile phase B. Conditions for the gradient tests are listed below. The system has a quaternary pump with four channels; however, only the A and B channels were used, which is why the C and D values are zero in the table below.
Two degradation impurities were present, which were labeled related compound B and related compound C. To ensure adequate separation and no co-elutions, peak purity was evaluated using a mass analysis window. FIG. 9 includes PDA peak purity and Mass analysis windows in the EMPOWER 3 data analysis software used to evaluate peak purity.
RRFs were calculated for the two impurities and the reciprocal of the RRF was used as a correction factor for each impurity to determine a corrected peak area for the impurity according to the following equation.
A reference sample was run by HPLC and the total corrected PDA peak area was determined for the reference sample as described below. The correction factor of the reciprocal of the RRF for an impurity was used to determine a corrected PDA peak area for each impurity in the reference sample. The total corrected PDA peak area was the sum of the corrected PDA peak area for each impurity and the PDA peak area for the API glimepiride. This total corrected PDA peak is the value used to calculate percentage recovery. Total Corrected peak area=peak areaAPI+ΣimpuritiesCorrected peak areaimpurity (8)
The degraded samples were run by HPLC and the correction factor of the reciprocal RRF for an impurity was used to obtain a corrected PDA peak area for each impurity in each degraded sample. For each degraded sample, a total corrected PDA peak area was calculated as the sum of the corrected PDA peak areas for the impurities and the PDA peak area for the API. The percentage recovery was the total corrected PDA peak area for the degraded sample divided by the total corrected peak are for the reference sample as indicated in the equation below.
Each peak area was determined based on the average of three different injections of the sample. The tables in FIG. 11 show example calculations of mass balance based on the experimental data.
The results of the molar mass balance calculations of data from the forced degradation studies using the RRF calculated in accordance with embodiments described herein are summarized in the table below and are graphically depicted in a chart in FIG. 12.

Series [4] can be described thus: Example 2: forced degradation of glimepiride drug substance under acidic hydrolysis conditions, UV % impurities and mass balance. The class given is physicochemical. Conditions: for % Impurities: UV. Here is the method:
as §2, §1, §3
Confirmation of the impurities was provided by the mass spectrometry.
as §4

A short description of series [5]: Example 2: forced degradation of glimepiride drug substance under oxidative conditions (AIBN), UV % impurities and mass balance. To be noted: for % Impurities: UV. The format is physicochemical. As for the experimental part:
as §2, §1, §3
For example, FIG. 19 includes chromatograms from analysis of a glimepiride drug substance after 5 days of oxidation by AIBN. […] The third peak is a product of the AIBN oxidation (m/z 177.1)-*- as evidenced by analysis of the control. One of the unknown peaks present in the AIBN control (m/z=177.2 Da) was attributed to the reagent. As observed with the acidic hydrolysis of glimepiride, the by-product (m/z=114.1 Da) was also observed. In addition, the oxidation degradation produced two isobaric peaks as determined by the QDa measurement resulting in the same m/z values.
Mass balance calculations were performed using the experimentally determined RRFs for acidic, oxidative and basic degradation conditions. […] Both the % impurity and recovery were impacted similarly, however, the implications for % impurity are greater, in that impurity reporting, identification and qualification thresholds can be impacted by as little as 0.05%. […]

For series [6] the following is noted: cited from earlier work.
For series [7] the following is noted: cited from earlier work. This is another data set of the same source.

On to `CC1CCC(N)CC1` (centres unmarked) [4-MeCHA, 4-methylcyclohexylamine], for which the “4-MeCHA” value amounted to 0.36 µg/mL in series [1] (1 day), 0.98 µg/mL in series [1] (3 days) and 1.74 µg/mL in series [1] (5 days). Moreover, the “4-MeCHA (%)” value is listed as 0.14% in series [1] (1 day), 0.39% in series [1] (3 days) and 0.70% in series [1] (5 days).
For the compound `CCC1=C(C)CN(C(=O)NCCc2ccc(S(N)(=O)=O)cc2)C1=O` [Related compound B, 3-Ethyl-4-methyl-2-oxo-N-(4-sulfamoylphenethyl)-2,5-dihydro-1H-pyrrole-1-carboxamide], the “% Area (impurity peaks found in base hydrolysis)” value in series [2] (1 day, UV) was found to be 1.83%.
As to `CCC1=C(C)CN(C(=O)NCCc2ccc(S(=O)(=O)NC(=O)NC3CCC(C)CC3)cc2)C1=O` (stereo not drawn) [glimepiride, 1-[[4-[2[(3-ethyl-4-methyl-2-oxo-3pyrroline-1-carboxamido)ethyl]phenyl]-sulphony]-3-trans-(4-methylcyclohexyl)urea]], the “Absolute Mass Balance Deficit” value is given as −0.6 in series [3] (1 day); −4.3 in series [3] (3 days); −0.7 in series [3] (5 days); −5.7 in series [3] (7 days); 2.3 in series [3] (T = 0). For the same compound, the Amount came to 239.0 in series [3] (1 day, n = 3); 242.7 in series [3] (3 days, n = 3); 239.1 in series [3] (5 days, n = 3); 244.1 in series [3] (7 days, n = 3); 236.1 in series [3] (T = 0, n = 3). In addition, the “% Impurities with RRF” value in series [4] (1 day) amounted to 1.95%; in series [4] (3 days), 5.14%; in series [4] (5 days) it was 8.15%; in series [4] (7 days), 16.69%; in series [5] (1 day), 1.45%; in series [5] (3 days), 4.05%. The “% Impurities with RRF” value is recorded as 6.28% in series [5] (5 days); 8.42% in series [5] (7 days); 11.99% in series [2] (basic hydrolysis, 1 day); 31.59% in series [2] (basic hydrolysis, 3 days); 51.92% in series [2] (basic hydrolysis, 5 days). Also, the “% Impurities” value is 2.35% in series [4] (1 day); 6.13% in series [4] (3 days); 9.72% and 9.67% in series [4] (5 days); 19.55% in series [4] (7 days); 1.75% in series [5] (1 day); 4.83% in series [5] (3 days). Besides, the “% Impurities” value in series [5] (5 days) was found to be 7.45%; in series [5] (7 days), 9.95%; in series [2] (basic hydrolysis, 3 days, UV), 33.45%. In series [1] (acidic hydrolysis conditions, over the time period), the “increase of recoveries on adding 4-methylcylcohexylamine” value is given as 0.2-1.1%. The pKa value in series [6] was 4.32. Moreover, the soluble in methanol in series [7] was 0.5 mg/mL.
For the compound `CCC1=C(C)CN(C(=O)NCCc2ccc(S(=O)(=O)NC(=O)OC)cc2)C1=O` [related compound C, methyl((4-(2-(3-ethyl-4-methyl-2-oxo-2,5-dihydro-1H-pyrrole-1-carboxamido)ethyl)phenyl)sulfonyl)carbamate], in series [2] (1 day, UV), the “% Area (impurity peaks found in base hydrolysis)” value was “not observed”.
